Publication PMC9330635, “Halogenated Pyrrolopyrimidines with Low MIC on Staphylococcus aureus and Synergistic Effects with an Antimicrobial Peptide” (Antibiotics, 2022)
In brackets after ≈: the same amount, converted by molar mass. Where two headings read alike, the source gives them in different places.

Experiments:
E. coli (MG1655) = test: MIC by broth microdilution, E. coli; format: cell-based, Escherichia coli; conditions: for MIC: Escherichia coli, E. coli MG1655, broth microdilution
Protocol: (§1) In this study, we have, therefore, altered our strategy and used minimal inhibitory concentration assays to identify and improve antibacterial agents. A total of 10 pyrrolopyrimidines with variation of the 4-amino group were assayed for their MIC in E. coli (MG1655) and S. aureus (ATCC29213) using the broth microdilution method. Subsequently, the compounds were also counter-screened for their inhibition of human EGFR.
(§2) The MIC of compound 1–21 towards Escherichia coli (MG1655) and Staphylococcus aureus (ATCC29213) was determined following the standards that were recommended by the Clinical and Laboratory Standards Institute (CLSI) for the broth microdilution method. Briefly, the bacterial suspensions were adjusted to 0.5 McFarland standard (~1 × 10^8 colony forming units (CFU)/mL) and diluted 1:200 in Cation-Adjusted Mueller-Hinton Broth (CAMHB, […], […]). The suspension was subsequently added to polypropylene microtiter plates (100 µL/well, ~5 × 10^4 CFU/well) that were already prepared with different concentrations of the various halogenated fused pyrimidines (11 µL/well, two-fold serial dilutions). The plates were incubated at 37 °C overnight before inspection for visible growth and determination of the MIC values.

S. aureus (ATCC29213) = test: MIC by broth microdilution, S. aureus; format: cell-based, Staphylococcus aureus; conditions: Staphylococcus aureus
Protocol: as §1, §2

S. aureus = test: MIC towards S. aureus in combination with the peptide betatide; format: cell-based, Staphylococcus aureus; conditions: betatide 8 mg/L (half its MIC)
Protocol: The concentration of betatide was 8 mg/L, which corresponds to half the MIC concentration.
as §2

human EGFR = target: T1, human EGFR (Homo sapiens, UniProt P00533); test: Enzymatic EGFR (ErbB1) inhibition, Z'-LYTE; format: biochemical; conditions: for inhibition at 0.1 µM: 100 nM compound, ATP equal to KM; for IC50: average of 2 titration curves, ATP equal to apparent KM, read-out: IC50 towards EGFR
T1 construct: purchased Invitrogen (ThermoFisher), assay service
T1 sequence (P00533 25-1210): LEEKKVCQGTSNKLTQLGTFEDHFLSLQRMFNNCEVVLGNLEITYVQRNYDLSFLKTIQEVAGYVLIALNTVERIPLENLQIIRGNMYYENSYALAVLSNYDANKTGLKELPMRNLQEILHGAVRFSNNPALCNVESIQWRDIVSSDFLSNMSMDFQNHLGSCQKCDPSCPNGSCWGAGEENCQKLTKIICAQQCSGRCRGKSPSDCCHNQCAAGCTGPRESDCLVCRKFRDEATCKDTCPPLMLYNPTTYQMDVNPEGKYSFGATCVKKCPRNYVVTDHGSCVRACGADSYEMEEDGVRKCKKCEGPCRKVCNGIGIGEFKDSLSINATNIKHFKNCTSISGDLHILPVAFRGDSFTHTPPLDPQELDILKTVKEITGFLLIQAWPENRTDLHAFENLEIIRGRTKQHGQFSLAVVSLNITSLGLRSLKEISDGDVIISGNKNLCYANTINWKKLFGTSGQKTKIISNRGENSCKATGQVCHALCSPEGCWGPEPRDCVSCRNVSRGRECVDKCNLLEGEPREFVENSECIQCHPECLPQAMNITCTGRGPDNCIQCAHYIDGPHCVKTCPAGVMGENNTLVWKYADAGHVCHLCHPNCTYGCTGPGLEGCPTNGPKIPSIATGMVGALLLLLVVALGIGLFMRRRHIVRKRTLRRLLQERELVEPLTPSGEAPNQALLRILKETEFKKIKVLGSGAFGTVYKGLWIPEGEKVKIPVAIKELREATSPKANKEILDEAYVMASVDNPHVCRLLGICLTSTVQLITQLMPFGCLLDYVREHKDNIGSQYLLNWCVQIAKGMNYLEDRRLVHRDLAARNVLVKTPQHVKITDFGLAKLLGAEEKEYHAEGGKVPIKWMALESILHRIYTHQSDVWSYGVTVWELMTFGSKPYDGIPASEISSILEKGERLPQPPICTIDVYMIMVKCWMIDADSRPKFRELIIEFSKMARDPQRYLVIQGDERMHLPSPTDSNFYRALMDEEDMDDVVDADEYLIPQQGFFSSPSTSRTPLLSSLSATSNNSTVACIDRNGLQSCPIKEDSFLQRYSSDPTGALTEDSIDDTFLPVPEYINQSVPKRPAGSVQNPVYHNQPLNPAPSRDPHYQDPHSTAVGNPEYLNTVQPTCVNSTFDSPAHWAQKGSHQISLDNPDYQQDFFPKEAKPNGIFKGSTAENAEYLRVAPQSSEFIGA
Protocol: The compounds were supplied in a 10 mM DMSO solution, and enzymatic EGFR (ErbB1) inhibition potency was determined by Invitrogen (ThermoFisher) using their Z’-LYTE® assay technology. The compounds were tested for their inhibitory activity at 100 nM in duplicates. The IC50 values that were reported for 1 and 5 are based on the average of 2 titration curves (20 data points), and were calculated from activity data with a four-parameter logistic model using SigmaPlot (Windows Version 12.0 from Systat Software, Inc., Palo Alto, CA, USA). Unless stated otherwise, the ATP concentration that was used was equal to apparent KM.

E. coli TMPK [1] = target: T2, E. coli TMPK (Escherichia coli, UniProt P0A720); design: method as in doi:10.1002/slct.202103796; conditions: previous study; read-out: IC50 against E. coli TMPK; cited from earlier work
T2 construct: purchased ProFoldin TMK100KE
T2 sequence (P0A720 whole entry): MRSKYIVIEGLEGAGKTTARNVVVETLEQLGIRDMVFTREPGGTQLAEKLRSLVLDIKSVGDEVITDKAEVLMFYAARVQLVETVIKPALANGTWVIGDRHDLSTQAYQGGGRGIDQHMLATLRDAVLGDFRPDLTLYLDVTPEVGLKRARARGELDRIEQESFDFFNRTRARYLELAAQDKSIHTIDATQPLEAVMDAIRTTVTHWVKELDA

E. coli TMPK [2] = target: T2, E. coli TMPK; test: E. coli TMPK assay (ProFoldin kit); format: biochemical; conditions: enzymatic; read-out: IC50 towards E. coli TMPK
Protocol: (§3) The inhibition of EcTMPK was determined by Profoldin using the E. coli Thymidylate Kinase Assay Kit Plus (ProFoldin, Catalog No. TMK100KE, Hudson, MA, USA), where dTMP was phosphorylated by ATP that was catalyzed by TMPK. The assay was run in 96-well black plates at 36 °C. The formation of ADP was measured by adding a fluorescent dye and measuring the fluorescence emission at 535 nm after excitation at 485 nm. The readout was corrected for emission from the assay cocktail and DMSO. An ADP control assay was also performed to correct for possible interference with ADP detection. Single-point inhibitions were measured at 8.3 µM inhibitor concentrations. The IC50-values were determined from a similar assay, where 2-fold dilution series from […] were used. The assay towards the human enzyme was run similarly but using the Human Thymidylate Kinase Assay Kit Plus-500 (Catalog Number: HTMK500KE, ProFoldin, Hudson, MA, USA).

human TMPK = target: T3, human TMPK (Homo sapiens, UniProt P23919); test: Human TMPK assay (ProFoldin kit); format: biochemical; conditions: enzymatic; read-out: IC50 towards human TMPK
T3 construct: purchased ProFoldin HTMK500KE
T3 sequence (P23919 1-212): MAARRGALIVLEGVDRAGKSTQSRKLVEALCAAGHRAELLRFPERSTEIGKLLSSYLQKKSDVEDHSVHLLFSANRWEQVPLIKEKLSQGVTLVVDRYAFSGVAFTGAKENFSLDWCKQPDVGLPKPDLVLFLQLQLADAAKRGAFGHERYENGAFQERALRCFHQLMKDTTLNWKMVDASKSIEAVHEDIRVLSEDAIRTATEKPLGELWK
Protocol: as §3

[3] = tested on: panel of 50 human kinases (EGFR most inhibited); test: Kinase panel, Z'-LYTE, 50 human kinases; format: biochemical
Protocol: As the starting point of this study was the EGFR inhibitor PKI-166 (1), there is an obvious risk of kinase off-target effects for the bromo derivative 5. Therefore, we profiled 5 towards a panel of 50 human kinases. […] Based on our previous experience, it is assumed that the EGFR inhibiting activity of 5 is too low to cause in vivo effects.
The compounds were supplied in a 10 mM DMSO solution, and enzymatic kinase inhibition potency was determined by ThermoFisher (Invitrogen, Waltham, MA, USA) using their Z’-LYTE® assay technology, at 500 nM in duplicates. The ATP concentration that was used was equal to Km, except when this service was not provided, and other concentrations had to be used.

[4] = ATCC29213, S. aureus, single agent (Table 3), read-out: Single Comp. MIC
[5] = S. aureus ATCC29213, broth microdilution, read-out: S. aureus MIC

| Structure (SMILES) | MIC (E. coli (MG1655)) | Activity towards E. coli in culture (in words) (E. coli (MG1655); culture, MIC assay) | MIC (S. aureus (ATCC29213); [4]) | MIC (S. aureus (ATCC29213); [5]) | Combination with Betatide MIC (S. aureus) | inhibition at 0.1 µM (human EGFR) | IC50 (human EGFR) | IC50 (E. coli TMPK [1]) | IC50 (E. coli TMPK [2]) | IC50 (human TMPK) | EGFR inhibition in kinase panel ([3]; 500 nM test concentration) | Inhibition of all the other kinases of the panel ([3]; 500 nM, 50 human kinases, other than EGFR) |
| --- | --- | --- | --- | --- | --- | --- | --- | --- | --- | --- | --- | --- |
| C[C@@H](Nc1ncnc2[nH]c(-c3ccc(O)cc3)cc12)c1ccccc1 [Compound 1, (R)-4-(4-((1-Phenylethyl)amino)-7H-pyrrolo[2,3-d]pyrimidin-6-yl)phenol, reference compound] | > 128 µg/mL | did not possess any activity | 64 µg/mL (≈ 194 µM) | 64 µg/mL (≈ 194 µM) | 8 µg/mL | 100% | < 0.001 µM | 15 µM | – | – | – | – |
| C[C@@H](Nc1ncnc2[nH]c(-c3ccc(O)cc3)cc12)c1ccc(Br)cc1 [Compound 5, (R)-4-(4-((1-(4-Bromophenyl)ethyl)amino)-7H-pyrrolo[2,3-d]pyrimidin-6-yl)phenol] | > 128 µg/mL | – | 8 µg/mL (≈ 19.5 µM) | 8 µg/mL (≈ 19.5 µM) | 1 µg/mL | 81% | 0.025 µM | – | 5 µM | > 100 µM | 91% | very low inhibition |
